Measured values as given in paper PMC3800014 (Journal of insect physiology, 2013).

Assays:
Assay type in all cases: cell-based
[1] = molecular target: T1, CquiOR1 (CquiOR1•CquiOrco) (Culex quinquefasciatus, UniProt S5RQ84); assay: Xenopus oocyte recording, UM laboratory; settings: agonist; co-expressed CquiOrco; positive control
T1 sequence (S5RQ84 1-391): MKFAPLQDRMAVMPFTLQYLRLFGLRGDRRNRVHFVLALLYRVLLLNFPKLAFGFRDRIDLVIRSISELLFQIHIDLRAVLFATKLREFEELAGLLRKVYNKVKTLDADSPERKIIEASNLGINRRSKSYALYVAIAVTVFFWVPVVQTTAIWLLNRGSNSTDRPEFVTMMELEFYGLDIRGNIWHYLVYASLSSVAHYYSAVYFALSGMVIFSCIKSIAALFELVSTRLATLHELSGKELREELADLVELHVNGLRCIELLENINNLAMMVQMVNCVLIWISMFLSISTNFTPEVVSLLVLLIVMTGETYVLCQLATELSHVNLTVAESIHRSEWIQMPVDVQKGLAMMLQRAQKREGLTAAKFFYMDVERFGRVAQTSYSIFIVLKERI

[2] = molecular target: T2, CquiOR44 (CquiOR44•CquiOrco) (Culex quinquefasciatus, UniProt S5RSX8); assay: two-electrode voltage clamp, Xenopus oocytes, inward current; settings: agonist; co-expressed CquiOrco; -70 mV
T2 sequence (S5RSX8 1-423): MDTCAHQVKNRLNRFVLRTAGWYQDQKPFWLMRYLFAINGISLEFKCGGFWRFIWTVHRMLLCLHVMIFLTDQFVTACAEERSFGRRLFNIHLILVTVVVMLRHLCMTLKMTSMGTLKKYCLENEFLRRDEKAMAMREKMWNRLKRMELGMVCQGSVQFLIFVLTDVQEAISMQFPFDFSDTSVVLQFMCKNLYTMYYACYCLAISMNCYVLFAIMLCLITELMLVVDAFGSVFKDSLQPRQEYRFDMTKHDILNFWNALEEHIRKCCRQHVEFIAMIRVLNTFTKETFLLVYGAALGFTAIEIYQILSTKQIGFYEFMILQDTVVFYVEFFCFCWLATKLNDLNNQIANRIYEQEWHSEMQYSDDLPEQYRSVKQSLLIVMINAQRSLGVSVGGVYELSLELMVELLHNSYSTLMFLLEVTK

[3] = molecular target: T1, CquiOR1 (CquiOR1•CquiOrco); assay: as above; settings: agonist; co-expressed CquiOrco; -70 mV
[4] = molecular target: T3, CquiOR73 (CquiOR73•CquiOrco) (Culex quinquefasciatus, UniProt S5R433); assay: as above; settings: agonist; co-expressed CquiOrco; -70 mV
T3 sequence (S5R433 1-396): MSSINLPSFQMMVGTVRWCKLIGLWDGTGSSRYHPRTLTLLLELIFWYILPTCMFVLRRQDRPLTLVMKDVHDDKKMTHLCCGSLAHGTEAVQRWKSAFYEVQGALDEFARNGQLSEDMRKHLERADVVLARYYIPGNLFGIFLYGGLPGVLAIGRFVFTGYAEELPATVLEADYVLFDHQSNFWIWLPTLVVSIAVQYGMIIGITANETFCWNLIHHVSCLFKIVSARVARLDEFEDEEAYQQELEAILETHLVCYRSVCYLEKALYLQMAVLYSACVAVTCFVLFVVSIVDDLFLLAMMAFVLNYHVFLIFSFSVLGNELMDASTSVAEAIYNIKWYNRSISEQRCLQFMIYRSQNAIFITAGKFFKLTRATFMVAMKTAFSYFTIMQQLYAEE

With CC(=O)c1ccccc1 [acetophenone] as the compound, how does the “Xenopus oocyte recording, UM laboratory” value [1] read?
Its value is “phenol, acetophenone, benzaldehyde, and 6-methyl-5-hepten-2-one”.

For CC1(C)C(=O)[C@@]2(C)CC[C@@H]1C2 [(+)-fenchone], which “two-electrode voltage clamp, Xenopus oocytes, inward current” value (shortened to “two-electrode voltage clamp”) [2] is on record?
The value was “no chiral discrimination as responses to (+)- and (−)-fenchone did not differ”.

How did the “two-electrode voltage clamp” value [3] turn out when C=CC(O)CCCCC (stereo not drawn) [1-octen-3-ol] was run?
Its value is “when CquiOR1 was challenged with 1-hexanol, 1-octen-3-ol, 2-phenoxyethanol, or benzaldehyde”.

CCc1ccc(O)cc1 [4-ethylphenol] was tested. Which “Xenopus oocyte recording, UM laboratory” value [1] did it give?
The value was “medium to large responses when challenged with indole, 4-ethylphenol, 4-methylphenol, phenol”.

Which “two-electrode voltage clamp” value [4] does the source give for CCCCCCCCOC(C)=O [octyl acetate] here?
The value was “no significant response to the majority of compounds in the panel, except for octyl acetate”.

Which “two-electrode voltage clamp” value [2] does the source give for CC1(C)C(=O)[C@]2(C)CC[C@H]1C2 [(−)-fenchone] here?
Its value is “no chiral discrimination as responses to (+)- and (−)-fenchone did not differ”.

How did the “two-electrode voltage clamp” value [4] turn out when C=CCc1ccc(O)c(OC)c1 [eugenol] was run?
The value was “eugenol was the best ligand identified for this OR”.

Which “two-electrode voltage clamp” value [3] does the source give for CCCCCCO [1-hexanol] here?
Its value is “when CquiOR1 was challenged with 1-hexanol, 1-octen-3-ol, 2-phenoxyethanol, or benzaldehyde”.

With CC1CCC(C(C)(C)O)C(O)C1 (stereo not drawn) [p-menthane-3,8-diol] as the compound, how does the “two-electrode voltage clamp” value [2] read?
The value was “including known natural repellents like p-menthane-3,8-diol”.
